Measured values: article PMC9328741 (Microbial Biotechnology, 2022)
Like-named read-outs stand apart in the source and are kept apart here.

How the values were obtained:
[1] = tested on: MycspAAO; test: initial rates from HMF concentration over time, Lineweaver-Burk; type: biochemical, Mycobacterium sp. MS1601; settings: 0.1-80 mM HMF, 10 µg/ml enzyme, 100 mM sodium phosphate pH 8, 30 °C
[2] = tested on: MycspAAO; settings: 0.1-80 mM HMF, 10 µg/ml enzyme, 100 mM sodium phosphate pH 8, 30 °C

Compound O=Cc1ccc(CO)o1 [5-hydroxymethylfurfural] has a Km [1] of 3.3 ± 0.3 mM and a Km [2] of 1.9 ± 0.005 mM.
